In ChEMBL document CHEMBL1201862, “PubChem BioAssay data set” (2004):
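Cultured in 96-well plates, cells were exposed to test compound for 48 hours across five concentrations. The concentration for 50% growth inhibition is given as GI50.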 The source made the active and inactive calls. No stated cut-off is given here; in the data, active = GI50 up to about 1.1 µM and inactive = higher.

Legend:
Experiment in all cases: NCI-60 cell line screen, 48 h
A549 = tested on: A549
COLO 205 = tested on: COLO 205
EKVX = tested on: EKVX
HCC 2998 = tested on: HCC 2998
HOP-92 = tested on: HOP-92
HT-29 = tested on: HT-29
Hs-578T = tested on: Hs-578T
MDA-MB-231 = tested on: MDA-MB-231
NCI-H226 = tested on: NCI-H226
NCI-H460 = tested on: NCI-H460
NCI-H522 = tested on: NCI-H522
NCI/ADR-RES = tested on: NCI/ADR-RES
OVCAR-8 = tested on: OVCAR-8
SF-295 = tested on: SF-295
SF-539 = tested on: SF-539
SK-MEL-5 = tested on: SK-MEL-5
SR = tested on: SR
SW-620 = tested on: SW-620
UACC-257 = tested on: UACC-257

Structure (SMILES) | GI50 (A549) | GI50 (COLO 205) | GI50 (EKVX) | GI50 (HCC 2998) | GI50 (HOP-92) | GI50 (HT-29) | GI50 (Hs-578T) | GI50 (MDA-MB-231) | GI50 (NCI-H226) | GI50 (NCI-H460) | GI50 (NCI-H522) | GI50 (NCI/ADR-RES) | GI50 (OVCAR-8) | GI50 (SF-295) | GI50 (SF-539) | GI50 (SK-MEL-5) | GI50 (SR) | GI50 (SW-620) | GI50 (UACC-257)
CCOC(=O)C(NC(C)=O)(Nc1ccc(S(N)(=O)=O)cc1)C(F)(F)F (configuration not stated) | > 100 µM (inactive) | > 100 µM (inactive) | > 100 µM (inactive) | > 100 µM (inactive) | > 100 µM (inactive) | > 100 µM (inactive) | > 100 µM (inactive) | > 100 µM (inactive) | > 100 µM (inactive) | > 100 µM (inactive) | > 100 µM (inactive) | > 100 µM (inactive) | > 100 µM (inactive) | > 100 µM (inactive) | > 100 µM (inactive) | > 100 µM (inactive) | > 100 µM (inactive) | > 100 µM (inactive) | > 100 µM (inactive)
CC(C)OC(=O)OCSc1ccccc1/N=C/c1cccc([N+](=O)[O-])c1 | > 10 µM (inactive) | > 10 µM (inactive) | > 10 µM (inactive) | > 10 µM (inactive) | > 10 µM (inactive) | > 10 µM (inactive) | > 10 µM (inactive) | > 10 µM (inactive) | > 10 µM (inactive) | > 10 µM (inactive) | > 10 µM (inactive) | > 10 µM (inactive) | > 10 µM (inactive) | > 10 µM (inactive) | > 10 µM (inactive) | > 10 µM (inactive) | > 10 µM (inactive) | > 10 µM (inactive) | > 10 µM (inactive)
O=C(CCOS(=O)(=O)CF)N1CCN(C(=O)CCOS(=O)(=O)CF)CC1 | 59 µM (inactive) | > 80.7 µM (inactive) | > 100 µM (inactive) | > 100 µM (inactive) | 35.6 µM (inactive) | > 100 µM (inactive) | 22.2 µM (inactive) | > 100 µM (inactive) | > 88.7 µM (inactive) | 5.27 µM (inactive) | 31.6 µM (inactive) | > 100 µM (inactive) | 60.1 µM (inactive) | 32.6 µM (inactive) | 28.8 µM (inactive) | 51.6 µM (inactive) | 9.08 µM (inactive) | > 100 µM (inactive) | > 100 µM (inactive)
COc1ccc(CCc2ccc3c(c2)OCO3)cc1 | 68.9 µM (inactive) | > 100 µM (inactive) | 66.8 µM (inactive) | 79.4 µM (inactive) | 36.8 µM (inactive) | 28.7 µM (inactive) | 86.3 µM (inactive) | > 100 µM (inactive) | 62.5 µM (inactive) | > 100 µM (inactive) | 51.3 µM (inactive) | 77.4 µM (inactive) | > 100 µM (inactive) | 65 µM (inactive) | 92 µM (inactive) | 34.9 µM (inactive) | 17.5 µM (inactive) | 32.8 µM (inactive) | 77.1 µM (inactive)
C=C1C(=O)OC2C1C(OC(=O)/C(C)=C/C)CC(O)(CCl)C1C(O)C=C(C)C21O (configuration not stated) | 28.7 µM (inactive) | 4.58 µM (inactive) | 12 µM (inactive) | 12.6 µM (inactive) | 8.93 µM (inactive) | 15.7 µM (inactive) | > 62.1 µM (inactive) | 15.7 µM (inactive) | 19.1 µM (inactive) | 16.7 µM (inactive) | 1.43 µM (inactive) | 17.9 µM (inactive) | 10.9 µM (inactive) | 53 µM (inactive) | 20.6 µM (inactive) | 11 µM (inactive) | 3.94 µM (inactive) | 3.85 µM (inactive) | 12.1 µM (inactive)
N=C(N)N/N=C\c1c(-c2cccc([N+](=O)[O-])c2)nc2sc(Cl)cn12 | 2.84 µM (inactive) | 1.93 µM (inactive) | 3.15 µM (inactive) | 2.31 µM (inactive) | 3.16 µM (inactive) | 1.73 µM (inactive) | 43.4 µM (inactive) | 2.74 µM (inactive) | 53.2 µM (inactive) | 2.67 µM (inactive) | 1.98 µM (inactive) | > 100 µM (inactive) | 2.75 µM (inactive) | 2.31 µM (inactive) | 2.6 µM (inactive) | 24.4 µM (inactive) | 0.61 µM (active) | 3.18 µM (inactive) | 2.29 µM (inactive)
C/C(=C\[Si](C)(C)c1ccco1)C(C)(O)[C@H](C)O (some centres not stated) | 48.2 µM (inactive) | 36.5 µM (inactive) | 42.6 µM (inactive) | 34.8 µM (inactive) | 46.1 µM (inactive) | 41 µM (inactive) | 55.3 µM (inactive) | > 100 µM (inactive) | 64.9 µM (inactive) | 47.5 µM (inactive) | 30.3 µM (inactive) | 43.7 µM (inactive) | 55.1 µM (inactive) | 49.4 µM (inactive) | > 100 µM (inactive) | 40.7 µM (inactive) | 33.8 µM (inactive) | 84.9 µM (inactive) | 24.6 µM (inactive)
CC1OCC2OC(C)OC(C3C4=C(CC(C)(C)CC4=O)OC4=C3C(=O)CC(C)(C)C4)C2O1 (configuration not stated) | > 100 µM (inactive) | > 100 µM (inactive) | > 100 µM (inactive) | > 100 µM (inactive) | > 100 µM (inactive) | > 100 µM (inactive) | > 100 µM (inactive) | > 100 µM (inactive) | > 100 µM (inactive) | > 100 µM (inactive) | > 100 µM (inactive) | > 100 µM (inactive) | > 100 µM (inactive) | > 100 µM (inactive) | > 100 µM (inactive) | > 100 µM (inactive) | > 100 µM (inactive) | > 100 µM (inactive) | > 100 µM (inactive)
